US20230150978A1, “QUINAZOLINONE DERIVATIVES AND USES THEREOF FOR TREATING A CANCER” (ENYO PHARMA, priority 2020, published 2023)

Experiments:
HMGB1 = HMGB1 release screen, Nano-Glo HiBiT extracellular detection; format: cell-based; conditions: Homo sapiens, MDA-MB-231, MDA-MB-231 cells stably expressing HMGB1-HiBiT; extracellular luminescence
Method: Construction of pBiT3.1-HMGB1 Plasmid
(§1) HMGB1 derived from pCMV6-AC-GFP plasmid (ref. RG205918, Origene) was amplified by PCR using the following set of primers: Seq ID No 1: forward, 5′-[…]-3′; Seq ID No 2: reverse, 5′-[…]-3′. The PCR fragment was subsequently digested by EcoRI and XhoI (R3101S and R0146S respectively, New England Biolabs) and inserted between the EcoRI and XhoI sites in the plasmid pBiT3.1-C(ref. N237A, Promega). The resulting plasmid (pBiT3.1-HMGB1) was grown in NEB10-beta competent E. coli (ref. C3019I, New England Biolabs) and purified using the NucleoBond Xtra Midi Kit (ref. 740410, Macherey-Nagel).
Construction of HMGB1 Reporter Cell Line
(§2) pBiT3.1-HMGB1 was transfected in MDA-MB-231 cells (ref. ATCC HTB-2) using Lipofectamine 2000 reagent (ref. 11668, Invitrogen). Transfected cells were selected for blasticidin resistance (15 μg/ml, ref. Al 113903 Gibco) in medium containing DMEM 1× (ref. 1995065, Gibco) with 1% penicillin and streptomycin, and 10% fetal bovine serum.
Screen for HMGB1-Releasing Drugs
(§3) MDA-MB-231 cells stably expressing HMGB1-HiBiT (10^4 cells/well) were seeded into white 96-well plates (ref.3917, Corning) and allowed to recover for 24h. […] Mitoxantrone dihydrochloride (ref. M6545, Sigma-Aldrich) was used as a positive control. Extracellular translocation of HMGB1 was measured using the Nano-Glo HiBiT extracellular detection system (ref. N2422, Promega). Nano-Glo HiBiT Extracellular Reagent was prepared in advance, added to the well and incubated 10 min. Luminescence of the extracellular HMGB1-HiBiT was quantified using the Spark 20M spectrofluorimeter (TECAN)

Calreticulin = Calreticulin release (ER to plasma membrane translocation) screen, Nano-Glo HiBiT extracellular detection; format: cell-based; conditions: Homo sapiens, MDA-MB-231, MDA-MB-231 cells stably expressing Calreticulin-HiBiT; extracellular luminescence; read-out: CalR EC50
Method: as §1, with “Construction of pBiT3.1-Calreticulin Plasmid Calreticulin” for “HMGB1”, “pCMV6-AC” for “pCMV6-AC-GFP”, “SC320287,” for “RG205918,”, “3:” for “1:”, “4:” for “2:”, “(pBiT3.1-Calreticulin)” for “(pBiT3.1-HMGB1)”
Construction of Calreticulin Reporter Cell Line
as §2, with “pBiT3.1-Calreticulin” for “pBiT3.1-HMGB1”
Screen for Calreticulin-ER to Plasma Membrane Translocating Drugs
as §3, with “Calreticulin-HiBiT” for “HMGB1-HiBiT”, “Calreticulin” for “HMGB1”, “min.” for “min. Luminescence of the extracellular HMGB1-HiBiT was quantified using the Spark 20M spectrofluorimeter (TECAN)”
Luminescence of the extracellular Calreticulin-HiBiT was quantified using the Spark 20M spectrofluorimeter (TECAN).

| EC50 (HMGB1) [nM] | EC50 (Calreticulin) [nM] | SMILES |
| --- | --- | --- |
| 7510 | 4410 | O=c1[nH]c(CN2CCc3ccccc3C2)nc2ccc(Cl)cc12 [Ex. #59, 6-chloro-2-(3,4-dihydro-1H-isoquinolin-2-ylmethyl)-3H-quinazolin-4-one] |
| 9360 | 870 | Cc1ccc2c(c1)CN(Cc1nc3ccc(Cl)cc3c(=O)[nH]1)CC2 [Ex. #60, 6-chloro-2-[(7-methyl-3,4-dihydro-1H-isoquinolin-2-yl)methyl]-3H-quinazolin-4-one] |
| 3860 | 450 | COc1ccc(OC)c2c1CN(Cc1nc3ccc(Cl)cc3c(=O)[nH]1)CC2O (stereo not shown) [Ex. #61, 6-chloro-2-[(4-hydroxy-5,8-dimethoxy-3,4-dihydro-1H-isoquinolin-2-yl)methyl]-3H-quinazolin-4-one] |
| 1060 | 960 | O=c1[nH]c(CN2CCCCc3ccccc32)nc2ccc(Cl)cc12 [Ex. #62, 6-chloro-2-(2,3,4,5-tetrahydro-1-benzazepin-1-ylmethyl)-3H-quinazolin-4-one] |
| 275 | 253 | CN(C)c1ccc2nc(CN3CCc4ccccc43)[nH]c(=O)c2c1 [Ex. #73, 6-(dimethylamino)-2-(indolin-1-ylmethyl)-3H-quinazolin-4-one] |
| 594 | 292 | COc1cc2c(=O)[nH]c(CN3CCc4ccccc43)nc2cc1F [Ex. #76, 7-fluoro-2-(indolin-1-ylmethyl)-6-methoxy-3H-quinazolin-4-one] |
| 1170 | 1380 | O=c1[nH]c(CN2CCc3ccccc32)nc2ccc(OC(F)(F)F)cc12 [Ex. #82, 2-(indolin-1-ylmethyl)-6-(trifluoromethoxy)-3H-quinazolin-4-one] |
| 1440 | 1610 | COc1cc2nc(CN3CCc4ccccc43)[nH]c(=O)c2cc1OC [Ex. #83, 2-(indolin-1-ylmethyl)-6,7-dimethoxy-3H-quinazolin-4-one] |
| 2630 | 695 | Cc1ccc2nc(CN3CCc4ccccc43)[nH]c(=O)c2c1 [Ex. #84, 2-(indolin-1-ylmethyl)-6-methyl-3H-quinazolin-4-one] |
| 3560 | 1960 | O=c1[nH]c(CN2CCc3ccccc32)nc2ccc(C(F)(F)F)cc12 [Ex. #85, 2-(indolin-1-ylmethyl)-6-(trifluoromethyl)-3H-quinazolin-4-one] |
| 3860 | 2560 | COc1ccc2c(=O)[nH]c(CN3CCc4ccccc43)nc2c1 [Ex. #86, 2-(indolin-1-ylmethyl)-7-methoxy-3H-quinazolin-4-one] |
| 3960 | 2160 | CC(C)Oc1ccc2nc(CN3CCc4ccccc43)[nH]c(=O)c2c1 [Ex. #87, 2-(indolin-1-ylmethyl)-6-isopropoxy-3H-quinazolin-4-one] |
| 97.5 | 97.5 | O=c1[nH]c(CN2CCc3ccccc32)nc2ccc(C3CC3)cc12 [Ex. #99, 6-cyclopropyl-2-(indolin-1-ylmethyl)-3H-quinazolin-4-one] |
| 10200 | 10000 | COC1CN(c2ccc3nc(CN4CCc5ccccc54)[nH]c(=O)c3c2)C1 [Ex. #101, 2-(indolin-1-ylmethyl)-6-(3-methoxyazetidin-1-yl)-3H-quinazolin-4-one] |
| 13100 | 3610 | COc1ccc2nc(CN3Cc4ccccc4C(O)C3)[nH]c(=O)c2c1 (stereo not shown) [Ex. #123, 2-[(4-hydroxy-3,4-dihydro-1H-isoquinolin-2-yl)methyl]-6-methoxy-3H-quinazolin-4-one] |
| 13500 | 2160 | COc1ccc2nc(CN3CCc4c(F)cccc4C3)[nH]c(=O)c2c1 [Ex. #124, 2-[(5-fluoro-3,4-dihydro-1H-isoquinolin-2-yl)methyl]-6-methoxy-3H-quinazolin-4-one] |
| 13400 | 6960 | Cc1ccc2c(c1)N(Cc1nc3ccc(Cl)cc3c(=O)[nH]1)CCC2 [Ex. #127, 6-chloro-2-[(7-methyl-3,4-dihydro-2H-quinolin-1-yl)methyl]-3H-quinazolin-4-one] |

Second part, the molecule before the results:

| SMILES | EC50 (HMGB1) [nM] | EC50 (Calreticulin) [nM] |
| --- | --- | --- |
| CN1CCCN(Cc2nc3ccc(Cl)cc3c(=O)[nH]2)c2ccccc21 [Ex. #63, 6-chloro-2-[(1-methyl-3,4-dihydro-2H-1,5-benzodiazepin-5-yl)methyl]-3H-quinazolin-4-one] | 4260 | 3860 |
| O=c1[nH]c(CN2CCCOc3ccccc32)nc2ccc(Cl)cc12 [Ex. #64, 6-chloro-2-(3,4-dihydro-2H-1,5-benzoxazepin-5-ylmethyl)-3H-quinazolin-4-one] | 5310 | 2460 |
| CN(C)c1ccc2nc(CN3CC(C)(C)c4ccccc43)[nH]c(=O)c2c1 [Ex. #74, 6-(dimethylamino)-2-[(3,3-dimethylindolin-1-yl)methyl]-3H-quinazolin-4-one] | 210 | 200 |
| O=c1[nH]c(CN2CCc3ccccc32)nc2cc(Cl)ccc12 [Ex. #89, 7-chloro-2-(indolin-1-ylmethyl)-3H-quinazolin-4-one] | 6260 | 8260 |
| O=c1[nH]c(CN2CCc3ccccc32)nc2cc(C(F)(F)F)ccc12 [Ex. #91, 2-(indolin-1-ylmethyl)-7-(trifluoromethyl)-3H-quinazolin-4-one] | 10100 | 8110 |
| COc1cc2c(=O)[nH]c(CN3CC(C)(C)c4ccccc43)nc2cc1Cl [Ex. #93, 7-chloro-2-[(3,3-dimethylindolin-1-yl)methyl]-6-methoxy-3H-quinazolin-4-one] | 150 | 97.5 |
| COc1cc(OC)c2nc(CN3CC(C)(C)c4ccccc43)[nH]c(=O)c2c1 [Ex. #94, 2-[(3,3-dimethylindolin-1-yl)methyl]-6,8-dimethoxy-3H-quinazolin-4-one] | 5760 | 3060 |
| COCCOc1ccc2nc(CN3CC(C)(C)c4ccccc43)[nH]c(=O)c2c1 [Ex. #97, 2-[(3,3-dimethylindolin-1-yl)methyl]-6-(2-methoxyethoxy)-3H-quinazolin-4-one] | 7560 | 7360 |
| O=c1[nH]c(CN2CCc3ccccc32)nc2ccc(N3CCC3)cc12 [Ex. #100, 6-(azetidin-1-yl)-2-(indolin-1-ylmethyl)-3H-quinazolin-4-one] | 250 | 230 |
| O=c1[nH]c(CN2CCc3ccccc32)nc2ccc(N3CCCC3)cc12 [Ex. #102, 2-(indolin-1-ylmethyl)-6-pyrrolidin-1-yl-3H-quinazolin-4-one] | 1370 | 595 |
| COCC1CCN(c2ccc3nc(CN4CCc5ccccc54)[nH]c(=O)c3c2)C1 (stereo not shown) [Ex. #103, 2-(indolin-1-ylmethyl)-6-[3-(methoxymethyl)pyrrolidin-1-yl]-3H-quinazolin-4-one] | 858 | 518 |
| O=c1[nH]c(CN2CCc3ccccc32)nc2ccc(N3CCC(CO)C3)cc12 (stereo not shown) [Ex. #104, 6-[3-(hydroxymethyl)pyrrolidin-1-yl]-2-(indolin-1-ylmethyl)-3H-quinazolin-4-one] | 3460 | 2160 |
| O=c1[nH]c(CN2CCc3ccccc32)nc2ccc(N3CCC(O)C3)cc12 (stereo not shown) [Ex. #105, 6-(3-hydroxypyrrolidin-1-yl)-2-(indolin-1-ylmethyl)-3H-quinazolin-4-one] | 11700 | 9160 |
| O=c1[nH]c(CN2CCc3ccccc32)nc2ccc(N3CCCCC3)cc12 [Ex. #106, 2-(indolin-1-ylmethyl)-6-(1-piperidyl)-3H-quinazolin-4-one] | 11100 | 8460 |
| CC(c1nc2ccc(Cl)cc2c(=O)[nH]1)N1CCc2ccccc21 (stereo not shown) [Ex. #120, 6-chloro-2-(1-indolin-1-ylethyl)-3H-quinazolin-4-one] | 7860 | 4610 |
